Series [1] deals with MDA-MB-436 cells. The series is described as follows: MDA-MB-436 cell activity test (CellTiter-Glo, 7 days). The format is cell-based. The conditions noted are these: for IC50: 7 days incubation; for inhibition at 10 µM: read-out: Max inh. % 10 μM. The method, then:
Breast tumor cells MDA-MB-436 were purchased from ATCC, the culture medium was Leibovitz's L-15+10% FBS, and the cells were cultured in a CO2-free incubator at 37° C. On day 1, the cells in the exponential growth phase were collected, and the cell suspension was adjusted to 4000 cells/135 μL with the culture medium. 135 μL of the cell suspension was added to each well of a 96-well cell culture plate and incubated overnight. On day 2, compounds at different concentrations were added, and the plate was placed in the incubator and incubated for 7 days. After the incubation was completed, according to operation instructions for a CellTiter-Glo kit (Promega, G7573), 75 μL of CTG solution, which was already pre-melted and equilibrated to room temperature, was added to each well, and the mixture was uniformly mixed for 2 min using a microplate shaker. The plate was placed at room temperature for 10 min, and then […] were measured using an Envision2104 plate reader (PerkinElmer). The inhibition rate was calculated using formula (1), where RLUcompound was the readout of the drug treated group, RLUcontrol was the average value of the vehicle control group, and RLUblank was the average value of the cell-free well. The IC50 value was calculated using GraphPad Prism software

A short description of series [2]: Pharmacokinetic test in rats. The format is in vivo, SD rats. The conditions noted are these: for pharmacokinetic characteristics in rats: conclusion in words; for Kp at 24 h / AUC(0-t) / clearance / Vd / bioavailability: male, SD, rat, rats; for Kp at 24 h: brain/plasma, intravenous, 2.5 mg/kg, 24 h after administration, read-out: Brain/Plasma Ratio (24 h); for AUC(0-t) / clearance / Vd / bioavailability: plasma; for Vd: read-out: Vdss. How it is done: 3.1 Experimental animal: male SD rats, about 220 g, 6-8 weeks old, 6 rats/compound, purchased from Chengdu Ddossy Experimental Animals Co., Ltd.
3.2 Experimental design: on the day of the experiment, 30 SD rats were randomly grouped according to their body weights. The animals were fasted with water available for 12 to 14 h one day before the administration and were fed 4 h after the administration.
(§1) Before and after the administration, 0.15 ml of blood was taken from the orbit of the animals under isoflurane anesthesia and placed in an EDTAK2 centrifuge tube. The blood was centrifuged at 5000 rpm and 4° C. for 10 min to collect plasma. The blood collection time points for the intravenous administration group and intragastric administration group were 0, 5 min, 15 min, 30 min, 1 h, 2 h, 4 h, 6 h, 8 h and 24 h. The brain tissues were collected 24 hours after administration, rinsed with cold physiological saline to remove the residual blood on the surface, drained out and then homogenized. Before analysis and detection, all samples were stored at −80° C. The samples were analyzed quantitatively by LC-MS/MS.

A short description of series [3]: Pharmacokinetic test in mice. The conditions noted are these: for pharmacokinetic characteristics in mice: conclusion in words; for AUC(0-t) / clearance / Vd / bioavailability / Kp at 24 h: male, Balb/c, mouse, mice; for AUC(0-t) / clearance / Vd / bioavailability: plasma; for Vd: read-out: Vdss; for Kp at 24 h: brain/plasma, 24 h after administration, read-out: Brain/Plasma Ratio (24 h). It counts as in vivo, Balb/c mice. How it is done:
4.1 Experimental animal: male Balb/c mice, 20-25 g, 12 mice/compound, purchased from Chengdu Ddossy Experimental Animals Co., Ltd.
4.2 Experimental design: on the day of the test, 60 Balb/c mice were randomly grouped according to their body weights. The animals were fasted with water available for 12 to 14 h one day before the administration and were fed 4 h after the administration.
as §1, with “administration, 0.06 mL ofblood” for “administration, 0.15 ml of blood”, “8 h,” for “8 h”, “collected at 30 min, 2 h and 24 h after administration of compounds 12, 15 and 18, respectively. The brain tissues were collected” for “collected”, “after administration of compounds 2 and 5,” for “after administration,”

The target in series [4] is PARP-1 enzyme (Homo sapiens (Human), UniProt P09874). The series is described as follows: PARP-1 enzyme activity test (chemical fluorescence detection kit, BPS Bioscience). The format is biochemical. How it is done:
PARP-1 chemical fluorescence detection kit was purchased from BPS Bioscience. The histone solution in the kit was diluted 5× with 1×PBS, and 25 μL of the diluted histone solution was added to a microwell plate and incubated overnight at 4° C. After the incubation, the plate was washed three times with PBST (0.05% Tween-20). 100 μL of the blocking solution was added to the microwell plate and incubated at 25° C. for 90 minutes. After the incubation was completed, the plate was washed three times with PBST. 2.5 μL of compounds at different concentrations diluted in test buffer and 12.5 μL of substrate mixed solution (1.25 μL 10×PARP test buffer; 1.25 μL 10×PARP test mixed solution; 2.5 μL Activated DNA, 7.5 μL double-distilled water) were added to the microwell plate. The PARP-1 enzyme was diluted to 2 ng/μL, […] was added to the microwell plate, and the reaction system was incubated at 25° C. for 60 minutes.
After the incubation was completed, the plate was washed three times with PBST. Streptavidin-HRP was diluted 50× with a blocking solution, and 25 μL of the diluent was added to the microwell plate and incubated at 25° C. for 30 minutes. After the incubation, the plate was washed three times with PBST. ELISA ECL substrate A and substrate B were uniformly mixed at a ratio of 1:1 (v/v), 50 μL of the mixture was added to the microwell plate, and the chemiluminescence value was read.
The inhibition rate was calculated according to formula 1, where RLUsample was the readout of the compound well, RLUmax was the readout of the solvent control well, and RLUmin was the readout of the control well without the PARP-1 enzyme. Curve fitting was performed by four parameters (log(inhibitor) vs. response—Variable slope) using GraphPad Prism software, and the ICso value was calculated.
Inhibition %=(1−(RLUsample−RLUmin)/(RLUmax−RLUmin))×100% (formula 1)

[5] abbreviates: Homo sapiens, MDA-MB-436, 168 h.
Where [6] appears, read: Homo sapiens, 10 μM, MDA-MB-436 cells.
The mark [7] stands for this setting: grades, read-out: PARP-1 enzyme activity IC50.

Like-named read-outs stand apart in the source and are kept apart here.

PARP-1 enzyme, sequence (P09874 whole entry): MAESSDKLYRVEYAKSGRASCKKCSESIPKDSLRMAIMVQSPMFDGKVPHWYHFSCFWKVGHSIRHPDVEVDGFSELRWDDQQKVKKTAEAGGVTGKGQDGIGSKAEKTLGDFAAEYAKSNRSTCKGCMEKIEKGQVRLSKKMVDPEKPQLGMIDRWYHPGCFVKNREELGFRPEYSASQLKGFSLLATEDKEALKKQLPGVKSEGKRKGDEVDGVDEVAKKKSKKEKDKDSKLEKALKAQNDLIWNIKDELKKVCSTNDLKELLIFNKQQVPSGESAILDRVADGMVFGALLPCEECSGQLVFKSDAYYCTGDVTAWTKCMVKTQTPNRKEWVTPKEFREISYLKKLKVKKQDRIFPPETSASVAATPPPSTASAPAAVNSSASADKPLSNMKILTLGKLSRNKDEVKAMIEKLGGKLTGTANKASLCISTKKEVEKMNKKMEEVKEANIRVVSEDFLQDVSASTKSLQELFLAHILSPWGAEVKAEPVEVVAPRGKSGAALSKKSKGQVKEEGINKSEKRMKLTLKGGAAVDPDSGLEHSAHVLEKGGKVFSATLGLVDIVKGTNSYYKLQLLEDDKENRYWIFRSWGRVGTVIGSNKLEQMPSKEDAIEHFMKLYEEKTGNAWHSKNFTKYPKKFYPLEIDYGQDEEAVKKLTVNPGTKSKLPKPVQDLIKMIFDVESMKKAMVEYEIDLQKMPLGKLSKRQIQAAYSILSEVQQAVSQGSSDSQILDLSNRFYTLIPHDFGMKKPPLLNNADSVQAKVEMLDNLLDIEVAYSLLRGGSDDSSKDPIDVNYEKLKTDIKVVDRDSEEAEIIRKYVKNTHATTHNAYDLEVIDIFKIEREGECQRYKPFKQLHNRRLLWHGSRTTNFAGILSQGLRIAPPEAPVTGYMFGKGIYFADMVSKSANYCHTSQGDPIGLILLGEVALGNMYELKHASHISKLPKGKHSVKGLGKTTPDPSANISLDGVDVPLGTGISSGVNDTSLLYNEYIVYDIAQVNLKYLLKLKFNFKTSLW

In general, IC50 refers to the concentration that gives 50% inhibition. One may read the AUC(0-t) as the area under the concentration-time curve up to a stated or last time point. A low value points to less exposure. For orientation: clearance means a measure of how efficiently the substance is removed, as volume per time. Read a low clearance as a low capacity for elimination. One may read the bioavailability as dose-corrected exposure relative to a reference, in per cent. The low end stands for poor availability, the high end for good availability. Take `Cn1cc(NC(=O)c2ccc(N3CCN(Cc4ccc5nc(C(F)F)c(=O)[nH]c5c4F)CC3)c(F)n2)cn1` [Compound 15]: the IC50 in series [1] (setting [5]) stood at 6.8 nM. Moreover, the inhibition at 10 µM in series [1] (setting [6]) worked out at 74.2%. Also, in series [2], the “pharmacokinetic characteristics in rats” value was “good pharmacokinetic characteristics” and the Kp at 24 h is 0.916. Besides, in series [2] (iv, i.v. 2.5 mg/kg), the AUC(0-t) stood at 25800 ± 2870 ng·h/mL, the clearance was 1.63 ± 0.18 mL/min/kg and the Vd is 0.192 ± 0.022 L/kg. In series [2] (po, i.g. 10 mg/kg), this compound yielded a bioavailability of 87.2 ± 14% and an AUC(0-t) of 89800 ± 14000 ng·h/mL. For the same compound, in series [3], the “pharmacokinetic characteristics in mice” value is “good pharmacokinetic characteristics”. Besides, in series [3] (iv, i.v. 2.5 mg/kg), the AUC(0-t) was determined as 16300 ± 1740 ng·h/mL, the clearance came to 2.57 ± 0.29 mL/min/kg and the Vd came out at 0.342 ± 0.04 L/kg. In series [3] (po, i.g. 10 mg/kg), the bioavailability is at least 98% and the AUC(0-t) amounted to 67200 ng·h/mL.
`Cc1nc2ccc(CN3CC=C(c4ccc(C(=O)Nc5cnn(C)c5)nc4F)CC3)c(F)c2[nH]c1=O` [Compound 9, 2-fluoro-1′-((5-fluoro-2-methyl-3-oxo-3,4-dihydroquinoxalin-6-yl)methyl)-N-(1-methyl-1H-pyrazol-4-yl)-1′,2′,3′,6′-tetrahydro-[3,4′-bipyridine]-6-carboxamide] had an IC50 in series [1] (setting [5]) of 1.5 nM. The inhibition at 10 µM in series [1] (setting [6]) was determined as 84.4%.
In turn, `Cc1nc2ccc(CN3CCN(c4ccc(C(=O)N[C@H]5C[C@H]5F)nc4F)CC3)c(F)c2[nH]c1=O` [Compound 5, 6-fluoro-5-(4-((5-fluoro-2-methyl-3-oxo-3,4-dihydroquinoxalin-6-yl)methyl)piperazin-1-yl)-N-((1S,2R)-2-fluorocyclopropyl)picolinamide] returned a concentration for half-maximal inhibition (IC50) in series [1] (setting [5]) of 28 nM. Further, the inhibition at 10 µM in series [1] (setting [6]) turned out to be 79.8%. Further, in series [3], the “pharmacokinetic characteristics in mice” value is “good pharmacokinetic characteristics” and the Kp at 24 h came out at 0.911. Also, in series [3] (iv, i.v. 2.5 mg/kg), the AUC(0-t) worked out at 2750 ± 212 ng·h/mL, the clearance amounted to 15.2 ± 1.1 mL/min/kg and the Vd came to 2.85 ± 0.23 L/kg. Besides, in series [3] (po, i.g. 10 mg/kg), the bioavailability is at least 98% and the AUC(0-t) stood at 12700 ± 817 ng·h/mL. Also, the IC50 in series [4] (setting [7]) is below 5 nM.
In the case of “1-(difluoromethyl)-N-(5-(4-((2-(difluoroethyl(-5-fluoro-3-oxo-3,4-dihydroquinoxalin-6-yl)methyl)piperazin-1-yl)-6-fluoropyridin-2-yl)-1H-pyrazole-4-carboxamide [Compound 17]”, the “Max inh. % 10 μM” value in series [1] (10 μM, MDA-MB-436 cells) turned out to be 72.33%. For the same compound, the IC50 in series [1] was 19.4 nM; in series [4] (setting [7]), below 5 nM.
Take `Cc1nc2ccc(CN3CCN(c4ccc(C(=O)N[C@@H]5C[C@@H]5F)nc4F)CC3)c(F)c2[nH]c1=O` [Compound 4, 6-fluoro-5-(4-((5-fluoro-2-methyl-3-oxo-3,4-dihydroquinoxalin-6-yl)methyl)piperazin-1-yl)-N-((1R,2S)-2-fluorocyclopropyl)picolinamide]: in series [1] (setting [5]), the IC50 worked out at 32.8 nM. Also, in series [1] (setting [6]), the inhibition at 10 µM is 80.1%. In addition, in series [2], the “pharmacokinetic characteristics in rats” value is “good pharmacokinetic characteristics” and the Kp at 24 h was 0.315. Further, in series [2] (iv, i.v. 2.5 mg/kg), the AUC(0-t) stood at 7390 ± 663 ng·h/mL, the clearance is 5.36 ± 0.068 mL/min/kg and the Vd came out at 1.13 ± 0.071 L/kg. In series [2] (po, i.g. 10 mg/kg), the bioavailability was at least 98% and the AUC(0-t) came to 33400 ± 2670 ng·h/mL. For the same compound, the IC50 in series [4] (setting [7]) is below 5 nM.
In series [1] (setting [5]), `Cc1nc2ccc(CN3CCN(c4ccc(C(=O)Nc5cnn(C)c5)nc4F)CC3)c(F)c2[nH]c1=O` [Compound 2, 6-fluoro-5-(4-((5-fluoro-2-methyl-3-oxo-3,4-dihydroquinoxalin-6-yl)methyl)piperazin-1-yl)-N-(1-methyl-1H-pyrazol-4-yl)picolinamide] came in with an IC50 of 3.5 nM. In addition, the inhibition at 10 µM in series [1] (setting [6]) turned out to be 86%. In series [3], the “pharmacokinetic characteristics in mice” value was “good pharmacokinetic characteristics” and the Kp at 24 h stood at 5.23. In series [3] (iv, i.v. 2.5 mg/kg), the AUC(0-t) came to 1870 ± 154 ng·h/mL, the clearance is 21.6 ± 1.3 mL/min/kg and the Vd was 2.09 ± 0.52 L/kg. In series [3] (po, i.g. 10 mg/kg), the bioavailability amounted to 97.4% and the AUC(0-t) came out at 7270 ± 793 ng·h/mL. In series [4] (setting [7]), the IC50 is below 5 nM. Besides, the IC50 in series [4] (read-out: IC50 value on PARP-1) was found to be 0.79 nM.
As for `Cn1cc(C(=O)Nc2ccc(N3CCN(Cc4ccc5nc(C(F)F)c(=O)[nH]c5c4F)CC3)c(F)n2)c(F)n1` [Compound 18, N-(5-(4-((2-(difluoromethyl)-5-fluoro-3-oxo-3,4-dihydroquinoxalin-6-yl)methyl)piperazin-1-yl)-6-fluoropyridin-2-yl)-3-fluoro-1-methyl-1H-pyrazole-4-carboxamide], in series [2], the “pharmacokinetic characteristics in rats” value was “good pharmacokinetic characteristics”. In series [2] (iv, i.v. 2.5 mg/kg), the area under the curve AUC(0-t) stood at 22000 ± 838 ng·h/mL, the clearance came to 1.9 ± 0.071 mL/min/kg and the Vd is 0.294 ± 0.011 L/kg. In series [2] (po, i.g. 10 mg/kg), the bioavailability was at least 98% and the AUC(0-t) turned out to be 87600 ± 11700 ng·h/mL. The “pharmacokinetic characteristics in mice” value in series [3] is reported as “good pharmacokinetic characteristics”. In series [3] (iv, i.v. 2.5 mg/kg), the AUC(0-t) worked out at 8150 ± 811 ng·h/mL, the clearance was 5.14 ± 0.53 mL/min/kg and the Vd amounted to 0.582 ± 0.029 L/kg. In series [3] (po, i.g. 10 mg/kg), this compound had a bioavailability of at least 98% and an area under the curve AUC(0-t) of 32300 ng·h/mL. Also, the IC50 in series [4] (setting [7]) is below 5 nM.

These data come from patent US20250346571A1, “BICYCLIC DERIVATIVE PARP INHIBITOR AND USE THEREOF” (XIZANG HAISCO PHARMACEUTICAL CO., LTD., priority 2022, published 2025).
